This is an account of results in patent publication US20130005644A1, “CYCLIC AGONISTS AND ANTAGONISTS OF C5A RECEPTORS AND G PROTEIN-COUPLED RECEPTORS” (PROMICS PTY LIMITED, priority 1997, published 2013).

Where two headings read alike, the source gives them in different places. Where a SMILES comes first, the peptide text is derived from it. [ ]: non-standard residue; d: D form. dCha = N[C@H](CC1CCCCC1)C(=O)O

The target of experiment [1] is T1, C5a receptor (Homo sapiens, UniProt P21730).
T1 construct: endogenous in cells; host or cells: fresh human polymorphonuclear leukocytes (PMNs), intact cells
T1 sequence (P21730 1-350): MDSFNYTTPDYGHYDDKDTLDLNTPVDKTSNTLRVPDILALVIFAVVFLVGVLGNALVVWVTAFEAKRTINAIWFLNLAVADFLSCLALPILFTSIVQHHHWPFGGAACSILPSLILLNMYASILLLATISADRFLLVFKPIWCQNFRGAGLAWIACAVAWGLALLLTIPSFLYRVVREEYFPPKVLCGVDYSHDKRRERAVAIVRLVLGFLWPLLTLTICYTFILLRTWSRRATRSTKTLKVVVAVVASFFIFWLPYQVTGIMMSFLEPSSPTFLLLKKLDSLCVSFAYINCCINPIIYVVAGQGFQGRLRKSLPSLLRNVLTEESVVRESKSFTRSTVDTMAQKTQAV
Description: Myeloperoxidase release from human PMNs mediated by 100 nM C5a (antagonist potency). In kind it is cell-based. The following applies: for IC50: 50% inhibition of C5a (100 nM)-caused release of MPO from PMNs, mean ± SE, read-out: pD2 ± SE (antagonist potency) (converted).

Experiment [2] concerns the target T1, C5a receptor. The experiment is described as follows: Agonist activity in human PMNs. In kind it is cell-based. As for the experimental part: Cells were isolated as previously described (Sanderson et al, 1995) and incubated with cytochalasin B (5 μg/mL, 15 min, 37° C.). Hank's Balanced Salt solution containing 0.15% gelatin and peptide was added on to a 96 well plate (total volume 100 μL/well), followed by 25 μL cells (4×10^6/mL). To assess the capacity of each peptide to antagonise C5a, cells were incubated for 5 min at 37° C. with each peptide, followed by addition of C5a (100 nM) and further incubation for 5 min. Then 50 μL of sodium phosphate (0.1M, pH 6.8) was added to each well, the plate was cooled to room temperature, and 25 μL of a fresh mixture of equal volumes of dimethoxybenzidine (5.7 mg/mL) and H2O2 (0.51%) was added to each well. The reaction was stopped at 10 min by addition of 2% sodium azide. Absorbances were measured at 450 nm in a Bioscan 450 plate reader, corrected for control values (no peptide), and analysed by non-linear regression.

The target of experiment [3] is T2, C5aR (Homo sapiens, UniProt P21730).
T2 construct: endogenous in cells; host or cells: fresh human polymorphonuclear leukocytes (PMNs), intact cells
T2 sequence (P21730 1-350): T1 sequence (P21730 1-350)
Description: Receptor-binding assay: inhibition of 125I-C5a binding to intact human PMNs.

The test system of experiment [4] is carrageenan-induced paw oedema in Wistar rats. The experiment is described as follows: Carrageenan-induced rat paw oedema. It is filed as in vivo. The following applies: 1 mg/kg i.p. 30 min prior to carrageenan, after 180 and 270 min. On the procedure:
Alternatively, a routine carrageenan paw oedema was developed in Wistar rats by administering a pedal injection of carrageenan to elicit oedema which is visible in 2 h and maximised in 4 h. […] See Fairlie, D. P. et al (1987). Also see Walker and Whitehouse (1978).
Paw swelling was measured for up to 4.5 hr.
In general terms: The carrageenan paw model is a standard test of acute inflammation.

For experiment [5], the target named is T1, C5a receptor. The following applies: human PMN; C5a agonist analogues; read-out: PMN Enzyme Release EC50; cited from earlier work.
A further experiment concerns human fetal artery. The settings on record: C5a agonist analogues; cited from earlier work.
Experiment [6] concerns the target T2, C5aR. The settings on record: cited from earlier work.
The subject of experiment [7] is LPS-induced neutropenia in Wistar rats. Description: LPS-induced neutropenia and haematocrit change. It is filed as in vivo. On the procedure:
LPS causes rapid neutropenia in rats. If this effect of LPS is blocked by C5a antagonists, then C5a may be of major importance in the acute effects of LPS, and the results shown in FIG. 9 were in agreement with this hypothesis. C5a antagonists were injected (bolus i.v.) 10 min prior to challenge with LPS. Rats were anaesthetised, and blood samples (0.3 ml) were taken for measurements of PMNs. PMNs are isolated and quantified.

The subject of experiment [8] is C5a-induced neutropenia in Wistar rats. Description: C5a-induced neutropenia in vivo. The settings on record: 1 mg/kg i.v. given prior to 2 μg C5a i.v. As for the experimental part:
Compounds were evaluated in an acute model of C5a-induced neutropenia. Transient neutropenia maximises 5 min after i.v. C5a and is profound, with >90% of circulating neutrophils disappearing from circulation at effective doses of C5a, as shown in FIG. 8. The neutropenia is due to transient adherence of circulating neutrophils to the vascular endothelium.

Setting [9] is: dose range 0.1 nM-1 mM, human PMNs.
[10] abbreviates: 50% inhibition in the binding of [125I]C5a to intact PMNs, mean ± SE, read-out: pD2 ± SE (binding) (converted).
[11] abbreviates: PMN C5aR, Finch et al, 1997, read-out: Binding Affinity IC50.

Consider `CN[C@@H](Cc1ccccc1)C(=O)N[C@@H](CCCCN)C(=O)N1CCC[C@H]1C(=O)N[C@H](CC1CCCCC1)C(=O)N[C@@H](Cc1c[nH]c2ccccc12)C(=O)N[C@H](CCCNC(=N)N)C(=O)O` [Compound 7, N-methylphenylalanine-lysine-proline-D-cyclohexylalanine-tryptophan-D-arginine, reference compound], for which, on C5a receptor [1] (human PMNs), the “antagonist activity against C5a and agonist decapeptide analogue 4” value is on record as “shows antagonist activity”. Also, the “Agonist Activity” value is given as “no agonist properties” on C5a receptor [2] (setting [9]) and “No” on C5a receptor [2] (dose range 0.1 nM-1 mM, human PMNs, listed as SEQ. ID NO: 7).

Consider `CN[C@@H](Cc1ccccc1)C(=O)N[C@@H](CCCCN)C(=O)N1CCC[C@H]1C(=O)N[C@H](CC1CCCCC1)C(=O)N[C@@H](Cc1c[nH]c2ccccc12)C(=O)N[C@H](CCCNC(=N)N)C(N)=O` [Compound 8, MeFKP(dCha) Wr-CONH2], for which, on C5aR [3] (conversion to the amide), the “reduction of receptor-affinity versus 7” value is reported as “approximately 5 fold”. Besides, on C5a receptor [1] (conversion to the amide), the “reduction of antagonist activity versus 7” value was “approximately 5 fold”. For the same molecule, the “Agonist Activity” value at C5a receptor [2] (setting [9]) is reported as “No”.

In the case of `CN[C@@H](Cc1ccccc1)C(=O)N[C@@H](CCCCN)C(=O)N1CCC[C@H]1C(=O)N[C@H](CC1CCCCC1)C(=O)N[C@@H](Cc1c[nH]c2ccccc12)C(=O)N[C@@H](CCCNC(=N)N)C(=O)O` [Compound 9, MeFKP(dCha)WR], the “Agonist Activity” value at C5a receptor [2] (setting [9]) is listed as “No”.

Regarding `CC(=O)N[C@@H](Cc1ccccc1)C(=O)N[C@H]1CCCCNC(=O)[C@@H](CCCNC(=N)N)NC(=O)[C@H](Cc2c[nH]c3ccccc23)NC(=O)[C@@H](CC2CCCCC2)NC(=O)[C@@H]2CCCN2C1=O` [Compound 11, Ac-F-[KP(dCha)Wr], the “Agonist Activity” value at C5a receptor [2] (Table 5, cyclic molecules) is listed as “No”; at C5a receptor [2] (setting [9]), “No”.

As for `CC(=O)N[C@@H](Cc1ccccc1)C(=O)N[C@H]1CCCNC(=O)[C@@H](CCCNC(=N)N)NC(=O)[C@H](Cc2c[nH]c3ccccc23)NC(=O)[C@@H](CC2CCCCC2)NC(=O)[C@@H]2CCCN2C1=O` [Compound 12, Ac-F-[OP(dCha)Wr], in experiment [4], the “development of carrageenan paw oedema (paw swelling)” value is reported as “significantly inhibits development of the oedema”. The “increase in receptor-binding affinity over decapeptide C-terminus of C5a (1)” value at C5aR [3] is reported as 10^4. Besides, at C5a receptor [1], the “times less active than 17 in vitro as a C5a antagonist in PMNs” value was determined as 100 times. For the same molecule, the “Agonist Activity” value at C5a receptor [2] (Table 5, cyclic molecules) is “No”; at C5a receptor [2] (setting [9]), “No”.

Regarding `N=C(N)NCCC[C@@H]1NC(=O)[C@H](Cc2c[nH]c3ccccc23)NC(=O)[C@@H](CC2CCCCC2)NC(=O)[C@@H]2CCCN2C(=O)[C@@H](NC(=O)[C@@H](N)Cc2ccccc2)CCNC1=O` [Compound 15, F-[X^2PdChaWR]], the IC50 on C5aR [3] (setting [10]) was 0.316 µM; at C5aR [3] (Table 5, cyclic molecules, read-out: Receptor Affinity) it was 0.3 µM; at C5a receptor [1], 0.0437 µM. For the same molecule, the “inhibition of the action of C5a and the binding of 125I-C5a to its receptor” value on C5a receptor [1] (in vitro on human PMNs) is recorded as “potent inhibitors at nM concentrations”. The “Agonist Activity” value on C5a receptor [2] (Table 5, cyclic molecules) is “No”.

Consider `CC(=O)N[C@@H](Cc1ccccc1)C(=O)N[C@H]1CCCCNC(=O)[C@H](CCCNC(=N)N)NC(=O)[C@H](Cc2c[nH]c3ccccc23)NC(=O)[C@@H](CC2CCCCC2)NC(=O)[C@@H]2CCCN2C1=O` [Compound 18], for which the “Agonist Activity” value at C5a receptor [2] (Table 5, cyclic molecules) is on record as “No”.

In the case of `N=C(N)NCCC[C@H]1NC(=O)[C@H](Cc2c[nH]c3ccccc23)NC(=O)[C@@H](CC2CCCCC2)NC(=O)[C@@H]2CCCN2C(=O)[C@H](Cc2c[nH]c3ccccc23)NC(=O)[C@H](Cc2ccccc2)NC1=O` [Compound 19, [FWPdChaWr]] (cyclo(FWP[dCha]W[dR]); ring closure inferred), on C5aR [3] (50% inhibition in the binding of [125I]C5a to intact PMNs, mean ± SE), the “pD2 ± SE (binding)” value is listed as 4.37 ± 0.36.

With `N=C(N)NCCC[C@H]1NC(=O)[C@H](Cc2c[nH]c3ccccc23)NC(=O)[C@@H](CC2CCCCC2)NC(=O)[C@@H]2CCCN2C(=O)[C@@H](NC(=O)[C@@H](N)Cc2ccccc2)CCCCNC1=O` [Compound 26, F-[KPdChaWr]], the IC50 at C5aR [3] (setting [10]) was 8.13 µM; at C5a receptor [1] it was 2.82 µM.

Turning to `N=C(N)NCCC[C@@H]1NC(=O)[C@H](Cc2c[nH]c3ccccc23)NC(=O)[C@@H](CC2CCCCC2)NC(=O)[C@@H]2CCCN2C(=O)[C@@H](NC(=O)[C@@H](N)Cc2ccccc2)CCCCNC1=O` [Compound 28, F-[KPdChaWR]], the figures for the IC50 at C5aR [3] (setting [10]) and at C5a receptor [1] were 0.316 µM and 0.204 µM, respectively.

A word on the EC50: it is the concentration needed to bring the measured effect to its halfway point. Take C5a12-20-ahxYSFKPMPLaR [Compound 6]: the EC50 is 0.7 µM at C5a receptor [5] and 0.08 µM in the experiment with human fetal artery. Besides, the IC50 on C5aR [6] (setting [11]) was 0.07 µM.

Turning to C5a37-46-ahxYSFKPMPLaR [Compound 5], the EC50 on C5a receptor [5] was 5.9 µM; in the experiment with human fetal artery, 0.06 µM. The IC50 at C5aR [6] (setting [11]) is 0.7 µM.

Regarding “C5a65-74 (ISHKDMQLGR) [Compound 1, decapeptide C-terminus of C5a]”, the EC50 in the experiment with C5a receptor [5] and with human fetal artery was over 1000 µM each time. Besides, the IC50 in the experiment with C5aR [6] (setting [11]) was over 1000 µM; in the experiment with C5aR [6] (literature values (Finch et al, 1997; Kawai et al, 1991), read-out: Receptor Affinity IC50), over 1000 µM.

For the molecule F-[OPdChaWR], in experiment [7] (1 mg/kg i.v. 10 min prior to i.v. LPS, rats), the LPS-induced neutropenia result is “inhibits neutropenia”. Also, in [7] (0.03-10 mg/kg i.v., 10 min prior to LPS 1 mg/kg i.v., Wistar rats), the “LPS-induced changes in haematocrit” value was “inhibition of LPS-induced neutropenia and changes in haematocrit”. The C5a-induced neutropenia result in experiment [8] is reported as “inhibits C5a-induced neutropenia”.

As for “YSFKDMPLaR [Compound 3, C5a agonist analogue]”, the EC50 was 72 µM at C5a receptor [5] and 0.5 µM in the experiment on human fetal artery. For the same molecule, the IC50 on C5aR [6] (setting [11]) was 3.7 µM.

Consider “YSFKDMQLGR [Compound 2, C5a agonist analogue]”, for which the EC50 at C5a receptor [5] was 92 µM; with human fetal artery, 9.6 µM. Besides, the IC50 on C5aR [6] (setting [11]) was 1.3 µM.

B1: C5a: human recombinant C5a, 74 amino acid complement glycoprotein (protein)
chain: TLQKKIEEIAAKYKHSVVKKCCYDGACVNNDETCEQRAARISLGPRCIKAFTECCVVASQLRANISHKDMQLGR
On to B1, for which the EC50 is 0.03 µM with C5a receptor [5] and 0.02 µM in the experiment on human fetal artery. Moreover, the IC50 with C5aR [6] (setting [11]) is 0.0006 µM. Moreover, the “Agonist Activity” value with C5a receptor [2] (setting [9]) was “Yes”.
